These results are taken from patent publication US9840500B2, “Compounds as dual inhibitors of histone methyltransferases and DNA methyltransferases” (FUNDACIÓN PARA LA INVESTIGACIÓN MÉDICA APLICADA, priority 2014, dated 2017).

For experiment [1], the system named is CEMO-1. Kind of experiment: Cell proliferation assay, CEMO-1 (ALL). The experiment is classed as cell-based, human. Particulars: Homo sapiens.
The subject of experiment [2] is PEER. The experiment can be described thus: Cell proliferation assay, PEER (ALL). In kind it is cell-based. Conditions: 48 hours. Here is the method:
Cell proliferation was analyzed after 48 hours of in vitro treatment using the CellTiter 96 Aqueous One Solution Cell Proliferation Assay (Promega, Madison, Wis.). This is a colorimetric method for determining the number of viable cells in proliferation.
For the assay, suspension cells were cultured by triplicate at a density of 1×10^6 cells/ml in 96-well plates (100.000 cells/well, 100 μl/well), except for OCILY-3 and OCILY-10 cell lines which were cultured at a density of 0.5×10^6 cells/ml (50.000 cells/well, 100 μl/well) and for HepG2, Hep3B and PLC/PRF/5 cell ines which were cultured at a density of 3000 cells/well, 100 μl/well). Adherent cells were obtained from 80-90% confluent flasks and 100 μl of cells were seeded at a density of 5000 cells/well in 96-well plates by triplicate. Before addition of the compounds, adherent cells were allowed to attach to the bottom of the wells for 12 hours. […]
After 48 hours of treatment, plates with suspension cells were centrifuged at 800 g for 10 minutes and medium was removed. […] After 1-3 hours of incubation at 37° C., absorbance was measured at 490 nm in a 96-well plate reader. The background absorbance was measured in wells with only cell line medium and solution reagent. Data was calculated as a percentage of total absorbance of treated cell/absorbance of non treated cells. […]

The test system of experiment [3] is human B-ALL mice model with CEMO-1 cell line. The experiment can be described thus: In vivo therapeutic activity in the preclinical human B-ALL mice model with CEMO-1 cell line. Details: species or system BALB/cA-Rag2−/−γc−/− mice. Here is the method: To examine the in vivo activity, a preclinical model of human B-ALL with RAG2 mouse was used. Six to eight-week old female BALB/cA-Rag2^−/−γc^−/− mice were purchased from The Netherlands Cancer Institute and maintained in pathogen-free isolation cages. RAG2 mice were injected intravenously (i.v.) with 10×10^6 CEMO-1 cells via tail vein to generate the human B-ALL mice model. Animals in groups of six were treated starting at day three after cells inoculation. The first group served as control and received placebo (saline) daily for 28 consecutive days, via i.v. injection.
The second group was treated with 3-04 (2.5 mg/kg) daily for 28 consecutive days via i.v. Animals were monitored weekly for weight loss and signs of tumour burden by flow cytometry of human cells. The median survival for 3-04 treated mice (N=6) was 91 days (SD: ±5.72) compared to 57 days (SD: ±10.52) for control mice (N=6) after cells inoculation.

Molecules are shown by their SMILES.

As to `COc1cc2c(NC3CCN(C)CC3)cc(-c3ccc(C)o3)nc2cc1OCCCN1CCCC1.O=C(O)C(F)(F)F` [Compound 3-04, 6-methoxy-2-(5-methyl-2-furyl)-N-(1-methyl-4-piperidyl)-7-(3-pyrrolidin-1-ylpropoxy)quinolin-4-amine; 2,2,2-trifluoroacetic acid], the GI50 in experiment [1] (48 hours of treatment, Table 3) lay within 100 to 1000 nM; in experiment [1] (ALL, Table 5 comparison), 100 to 1000 nM; in experiment [2], 100 to 1000 nM. In experiment [3] (2.5 mg/kg daily for 28 consecutive days i.v., after cells inoculation, control 57 days), the median survival was 91 days. In experiment [3] (2.5 mg/kg daily for 28 days i.v., P=0.0009), the “survival compared with the control (Kaplan-Meier, log-rank test)” value is “significantly prolonged survival”.
